# Measurements from ChEMBL document CHEMBL1268924, “Design, solid-phase synthesis, and biological evaluation of novel 1,5-diarylpyrrole-3-carboxamides as carbonic anhydrase IX inhibitors” (Bioorg Med Chem, 2010).
# Molecular target: Carbonic anhydrase 1 (Homo sapiens, UniProt P00915)
# Test: Inhibition of human carbonic anhydrase 1 by stopped flow CO2 hydration assay
# Carbonic anhydrase 1, sequence (P00915 whole entry): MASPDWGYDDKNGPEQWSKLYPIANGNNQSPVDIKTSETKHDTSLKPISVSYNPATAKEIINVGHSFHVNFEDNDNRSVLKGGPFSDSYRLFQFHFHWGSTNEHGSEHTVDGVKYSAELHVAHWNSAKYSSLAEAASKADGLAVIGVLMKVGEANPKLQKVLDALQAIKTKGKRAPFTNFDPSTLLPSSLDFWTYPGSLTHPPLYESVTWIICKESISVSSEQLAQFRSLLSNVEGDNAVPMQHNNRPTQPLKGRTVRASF
row,Structure (SMILES),Ki
1,Cc1c(C(=O)N2CCN(C)CC2)cc(-c2ccc3ccccc3c2)n1-c1ccc(S(N)(=O)=O)cc1,> 10000 nM

# Molecular target: Carbonic anhydrase 9 (Homo sapiens, UniProt Q16790)
# Test: Inhibition of human carbonic anhydrase 9 by stopped flow CO2 hydration assay
row,Structure (SMILES),Ki
1,Cc1c(C(=O)NCCN2CCCC2)cc(-c2ccc3ccccc3c2)n1-c1ccc(S(N)(=O)=O)cc1,30 nM
2,Cc1c(C(=O)NCCCN2CCN(C)CC2)cc(-c2ccc3ccccc3c2)n1-c1ccc(S(N)(=O)=O)cc1,147 nM
3,Cc1c(C(=O)NCCCN(C)C)cc(-c2ccc3ccccc3c2)n1-c1ccc(S(N)(=O)=O)cc1,11 nM
4,Cc1c(C(=O)NCCCN2CCN(C)CC2)cc(-c2ccc(-c3ccccc3)cc2)n1-c1ccc(S(N)(=O)=O)cc1,198 nM
5,Cc1c(C(=O)NCCN2CCOCC2)cc(-c2ccccc2)n1-c1ccc(S(N)(=O)=O)cc1,200 nM
6,Cc1c(C(=O)NCCCN2CCOCC2)cc(-c2ccc(-c3ccccc3)cc2)n1-c1ccc(S(N)(=O)=O)cc1,101 nM
7,Cc1c(C(=O)NCCCN2CCOCC2)cc(-c2ccc3ccccc3c2)n1-c1ccc(S(N)(=O)=O)cc1,137 nM
8,Cc1c(C(=O)NCCN(C)C)cc(-c2ccc3ccccc3c2)n1-c1ccc(S(N)(=O)=O)cc1,10 nM
9,Cc1c(C(=O)NCCN(C)C)cc(-c2ccccc2)n1-c1ccc(S(N)(=O)=O)cc1,242 nM
10,Cc1c(C(=O)N2CCN(C)CC2)cc(-c2ccc(-c3ccccc3)cc2)n1-c1ccc(S(N)(=O)=O)cc1,68 nM
11,Cc1c(C(=O)NCCN2CCCCC2)cc(-c2ccc(-c3ccccc3)cc2)n1-c1ccc(S(N)(=O)=O)cc1,167 nM
12,Cc1c(C(=O)NCCN2CCOCC2)cc(-c2ccc3ccccc3c2)n1-c1ccc(S(N)(=O)=O)cc1,22 nM
13,Cc1c(C(=O)NCCN2CCCCC2)cc(-c2ccccc2)n1-c1ccc(S(N)(=O)=O)cc1,89 nM
14,Cc1c(C(=O)NCCN2CCN(C)CC2)cc(-c2ccc(-c3ccccc3)cc2)n1-c1ccc(S(N)(=O)=O)cc1,207 nM
15,Cc1c(C(=O)NCCCN(C)C)cc(-c2ccc(-c3ccccc3)cc2)n1-c1ccc(S(N)(=O)=O)cc1,111 nM
16,Cc1c(C(=O)NCCN2CCOCC2)cc(-c2ccc(-c3ccccc3)cc2)n1-c1ccc(S(N)(=O)=O)cc1,187 nM
17,Cc1c(C(=O)NCCN2CCCCC2)cc(-c2ccc3ccccc3c2)n1-c1ccc(S(N)(=O)=O)cc1,125 nM
18,Cc1c(C(=O)NCCN2CCN(C)CC2)cc(-c2ccc3ccccc3c2)n1-c1ccc(S(N)(=O)=O)cc1,126 nM
19,Cc1c(C(=O)NCCCN(C)C)cc(-c2ccccc2)n1-c1ccc(S(N)(=O)=O)cc1,131 nM
20,Cc1c(C(=O)NCCN2CCCC2)cc(-c2ccc(-c3ccccc3)cc2)n1-c1ccc(S(N)(=O)=O)cc1,153 nM
21,Cc1c(C(=O)N2CCN(C)CC2)cc(-c2ccccc2)n1-c1ccc(S(N)(=O)=O)cc1,135 nM
